Experimental data from PubChem BioAssay (NCI).
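A five-concentration, 48-hour dose response in 96-well plates underlies each endpoint, interpolated linearly between surrounding concentrations. Abbreviation: GI50, concentration required for 50% inhibition of growth. TGI: total growth inhibition.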

Columns and labels:
Test in all cases: DTP human tumour cell line panel, 48 h
[1] = system: 786-0 renal
[2] = system: EKVX NSCLC
[3] = system: HCC-2998 colon
[4] = system: HCT-15 colon
[5] = system: IGROV1 ovarian
[6] = system: LOX IMVI melanoma
[7] = system: MALME-3M melanoma
[8] = system: NCI-H23 lung
[9] = system: SR leukemia
[10] = system: SNB-75 CNS

SMILES | TGI [1] [µM] | TGI [2] [µM] | TGI [3] [µM] | TGI [4] [µM] | TGI [5] [µM] | TGI [6] [µM] | TGI [7] [µM] | TGI [8] [µM] | TGI [9] [µM] | TGI [10] [µM] | GI50 [2] [µM] | GI50 [3] [nM] | GI50 [4] [µM] | GI50 [5] [nM] | GI50 [6] [µM] | GI50 [7] [µM] | GI50 [8] [µM] | GI50 [10] [nM] | GI50 [9] [nM]
CC(=O)O[C@H]1CCC2[C@@H]3CCC4NC(=O)C(C#N)C[C@]4(C)C3CC[C@@]21C (some centres not stated) | > 10 | > 10 | > 10 | > 10 | > 10 | > 10 | > 10 | > 10 | > 10 | – | – | – | – | – | – | – | – | – | –
Cc1c(C#N)c(=N)oc2ccccc12 | > 100 | > 100 | > 100 | > 100 | > 100 | > 100 | > 100 | > 100 | – | > 100 | – | – | – | – | – | – | – | – | –
Cc1cn(CCOCCOC(=O)NC(CCCNC(N)=O)C(=O)O)c(=O)[nH]c1=O (configuration not stated) | > 100 | > 100 | > 100 | > 100 | > 100 | > 100 | – | > 100 | > 100 | > 100 | – | – | – | – | – | – | – | – | –
C/C(=N/NC(=S)N1CCN(C(=S)N/N=C(/C)c2ccccn2)CC1)c1ccccn1 | > 100 | > 100 | > 100 | > 100 | > 100 | > 100 | > 100 | > 81.9 | – | > 77.6 | – | – | – | – | – | – | – | – | –
Cc1nc2c(n1-c1ccccc1)C(=O)c1ccccc1C2=O | > 100 | > 100 | > 100 | > 100 | – | – | 34.2 | > 100 | > 100 | > 100 | – | – | – | – | – | – | – | – | –
C=CCOC1(CC=C)C(=O)OC2C(O)COC21O (configuration not stated) | > 100 | > 100 | > 100 | > 100 | > 100 | > 100 | > 100 | > 100 | > 100 | – | – | – | – | – | – | – | – | – | –
CC1(C)C=[N+]([O-])C(C)(C)N1O | > 10 | > 10 | > 10 | > 10 | – | – | > 10 | > 10 | > 10 | – | – | – | – | – | – | – | – | – | –
Cc1nc2cccc(F)c2c(=O)n1-c1nnc(C(F)(F)F)s1 | > 10 | > 10 | > 10 | > 10 | > 10 | > 10 | – | > 10 | > 10 | > 10 | – | – | – | – | – | – | – | – | –
CC1CN=C(c2ccc(CN3CCC(C4CCN(Cc5ccc(C6=NCC(C)N6)cc5)CC4)CC3)cc2)N1 (configuration not stated) | 34.1 | 47.2 | 30.9 | 94.7 | > 100 | 56 | 63 | 84.7 | – | 31.1 | – | – | – | – | – | – | – | – | –
O=c1c2cc(Br)ccc2ncn1COCc1ccccc1 | > 100 | > 100 | > 100 | > 100 | > 100 | > 100 | – | – | > 100 | – | – | – | – | – | – | – | – | – | –
O=C(NCCCCCCO)c1cccc2cc3ccccc3nc12 | 36.2 | 32.8 | – | 48.6 | 35.7 | 34.7 | – | – | – | 37.3 | – | – | – | – | – | – | – | – | –
CC1=CC[C@](C)(O)[C@@]2(C)CC[C@H]3C(=C(C)C)C(=O)C[C@]3(C)C[C@H]12 | > 50 | > 50 | > 50 | 46.2 | > 50 | 17 | – | > 50 | 40.6 | > 50 | – | – | – | – | – | – | – | – | –
CS(=O)(=O)[O-].CS(=O)(=O)[O-].NC1CCCCC1N.[Pt+4] (configuration not stated) | – | > 100 | > 100 | > 100 | > 100 | > 100 | > 100 | > 100 | – | > 100 | > 100 | > 100000 | > 100 | > 69400 | > 61 | > 100 | 88 | > 68000 | –
COc1cc2c(cc1OC)C(=O)/C(=C/c1ccc(O)cc1)CC2 | > 10 | > 10 | > 10 | > 10 | > 10 | > 10 | > 10 | > 10 | > 10 | – | – | – | – | – | – | – | – | – | –
COc1ccccc1NC(=S)N/N=C/c1ccccn1 | 13 | 5.08 | 32.9 | 29 | – | 6.8 | > 24.3 | 6.01 | – | 24.4 | – | – | – | – | – | – | – | – | –
Nc1ccc2c(c1)NC(=O)[C@@H]1CCCN1C2=O | > 100 | > 100 | > 100 | > 100 | > 100 | > 100 | – | > 100 | > 100 | > 100 | – | – | – | – | – | – | – | – | –
C=C(C)[C@@H]1CC[C@]2(CO)CC[C@]3(C)[C@H](CC[C@@H]4[C@@](C)(CCCN)[C@H](C(=C)C)CC[C@]43C)[C@@H]12 | – | – | 3.3 | – | 3.22 | – | – | – | 2.14 | 2.82 | – | 1790 | – | 1760 | – | – | – | 1480 | 475
CC(=O)NC(=O)NC1=NCCC(=O)N1CCc1c[nH]c2ccccc12 | > 100 | > 100 | > 100 | > 100 | > 100 | > 100 | > 100 | > 100 | – | – | – | – | – | – | – | – | – | – | –
Cc1ccc(/C=N\NC(=O)c2ccncc2)s1 | > 100 | > 100 | > 100 | > 100 | > 100 | – | > 100 | > 100 | > 100 | – | – | – | – | – | – | – | – | – | –
CCN(CC)/[N+]([O-])=N/O | – | > 100 | > 100 | > 100 | > 100 | > 100 | – | > 100 | > 100 | – | – | – | – | – | – | – | – | – | –
C[C@]12CC[C@H]3[C@@H](CCC4=C(Br)C(=O)C=C[C@@]43O)[C@@H]1CCC2=O | 81.2 | > 100 | – | 52.7 | > 100 | > 100 | > 100 | > 100 | 58.8 | – | – | – | – | – | – | – | – | – | –
C=CCCCCn1c2ccccc2c2c(C)c3cnccc3c(C)c21 | – | 34.4 | 51.2 | 27.5 | 46.4 | 82.5 | 36.8 | 32.8 | – | 53.7 | – | – | – | – | – | – | – | – | –
COc1cccc(C23CCCC(C2)N(C)CC3OC(=O)c2ccccc2)c1OC (configuration not stated) | > 100 | 72.7 | 78.1 | 72.7 | 37.4 | 45.2 | 48.1 | 44.6 | 40.9 | – | – | – | – | – | – | – | – | – | –
COc1cc2oc(=O)cc(C)c2c(OC)c1OC(C)=O | > 100 | > 100 | – | > 100 | > 100 | > 100 | > 100 | > 100 | > 100 | > 100 | – | – | – | – | – | – | – | – | –
